# Data as given in paper PMC4351081, “Lincosamide Synthetase—A Unique Condensation System Combining Elements of Nonribosomal Peptide Synthetase and Mycothiol Metabolism” (PLoS ONE, 2015).
# Molecular target: T1, LmbC (with holo-LmbN-CP) (Streptomyces lincolnensis, UniProt A9Y8R4)
# T1 construct: gene SLINC_0236; LmbC: stand-alone NRPS adenylation domain, recombinant, produced as described previously; LmbN-CP: stand-alone N-terminal ~80-residue CP domain, C-terminal His-tag, E. coli BL21(DE3), phosphopantetheinylated by Slp (holo); with LmbN, N-terminal carrier protein domain (LmbN-CP)
# T1 sequence (A9Y8R4 1-509): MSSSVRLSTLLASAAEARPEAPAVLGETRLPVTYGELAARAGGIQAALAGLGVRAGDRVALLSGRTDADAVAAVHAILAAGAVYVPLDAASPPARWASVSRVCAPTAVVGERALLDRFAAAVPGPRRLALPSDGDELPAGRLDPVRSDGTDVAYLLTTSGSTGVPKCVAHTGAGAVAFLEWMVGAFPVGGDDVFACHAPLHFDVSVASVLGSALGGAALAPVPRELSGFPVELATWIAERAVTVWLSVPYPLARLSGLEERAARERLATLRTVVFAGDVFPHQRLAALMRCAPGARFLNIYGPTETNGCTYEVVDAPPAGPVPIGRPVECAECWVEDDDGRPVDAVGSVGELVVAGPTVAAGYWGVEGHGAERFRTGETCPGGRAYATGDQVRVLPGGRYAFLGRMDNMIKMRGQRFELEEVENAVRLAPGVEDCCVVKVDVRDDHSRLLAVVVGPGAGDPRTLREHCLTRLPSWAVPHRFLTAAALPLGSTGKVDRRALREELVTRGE
# T1 sequence (A9Y8S4 1-80 partner limits assumed): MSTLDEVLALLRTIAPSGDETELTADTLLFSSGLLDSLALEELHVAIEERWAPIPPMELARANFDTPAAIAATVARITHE
# Assay: LC-MS (FT-ICR) of aminoacylated carrier protein
# Format: biochemical
# Conditions: 3 mM PPL, 1.2 mM ATP, Mg2+, in vitro or in vivo phosphopantetheinylated LmbN-CP, 0.6 uM LmbC, pH 8.8, 28 C, 50 min; PPL transferred to holo-LmbN-CP (covalent)
smiles,measurement,value
CCCC1CN[C@H](C(=O)O)C1 (stereo partly drawn) [4-propyl-L-proline],LC-MS (FT-ICR) of aminoacylated carrier protein,A-domain LmbC together with LmbN-holo-CP activate the PPL precursor of lincomycin
